The target in this test is T1, TLR4 (Mus musculus, UniProt Q9QUK6).
T1 construct: endogenous in cells; host or cells: RAW 264.7
T1 sequence (Q9QUK6 26-835): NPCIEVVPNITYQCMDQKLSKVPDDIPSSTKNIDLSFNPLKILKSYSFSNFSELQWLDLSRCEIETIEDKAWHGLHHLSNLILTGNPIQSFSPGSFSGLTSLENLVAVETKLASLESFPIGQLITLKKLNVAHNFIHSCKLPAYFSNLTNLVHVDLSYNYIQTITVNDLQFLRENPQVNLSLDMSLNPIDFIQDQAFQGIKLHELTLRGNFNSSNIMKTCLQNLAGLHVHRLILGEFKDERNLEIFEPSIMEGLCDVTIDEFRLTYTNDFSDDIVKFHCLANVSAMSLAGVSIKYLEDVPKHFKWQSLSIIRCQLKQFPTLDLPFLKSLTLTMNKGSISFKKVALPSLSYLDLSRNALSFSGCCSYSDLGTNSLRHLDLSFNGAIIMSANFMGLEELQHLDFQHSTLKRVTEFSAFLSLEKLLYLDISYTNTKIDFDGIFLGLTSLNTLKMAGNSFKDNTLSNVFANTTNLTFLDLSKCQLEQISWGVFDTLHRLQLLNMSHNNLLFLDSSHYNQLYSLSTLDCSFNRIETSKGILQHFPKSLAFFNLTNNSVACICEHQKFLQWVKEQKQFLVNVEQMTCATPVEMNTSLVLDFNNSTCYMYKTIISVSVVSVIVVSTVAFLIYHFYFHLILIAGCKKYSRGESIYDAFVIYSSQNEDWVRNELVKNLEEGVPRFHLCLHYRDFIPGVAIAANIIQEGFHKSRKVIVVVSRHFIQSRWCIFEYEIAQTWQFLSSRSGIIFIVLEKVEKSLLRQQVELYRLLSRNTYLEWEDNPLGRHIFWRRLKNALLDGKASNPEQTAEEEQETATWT
T1 sequence (Q9JHF9 19-160 partner): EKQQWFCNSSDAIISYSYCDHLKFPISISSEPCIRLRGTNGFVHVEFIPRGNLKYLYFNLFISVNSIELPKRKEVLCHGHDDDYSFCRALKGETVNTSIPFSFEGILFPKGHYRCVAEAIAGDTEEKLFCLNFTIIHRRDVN
The experiment in a line: TLR4-mediated TNF-α secretion (LPS), ELISA. It is filed as cell-based, murine. The settings on record: RAW 264.7, 10 or 20 μM. Here is the method:
Agonists specific to TLR1/TLR2 (Pam3CSK4), TLR2/TLR6 (FSL-1), TLR3 (Poly I:C), TLR7 (imiquimod), and TLR8 (TL8-506) were purchased from InvivoGen Ltd. (Hong-Kong, China), and a TLR4-specific agonist (LPS from E. coli O111:B4) was purchased from Sigma-Aldrich, Inc. For TLR9-specific stimulation, class C CpG-ODN (ODN2395, 5′-TCGTCGTTTTCGGCGCGCGCCG-3′) having full phosphorothioate backbone modification was synthesized (Bioneer, Inc., Daejeon, Korea). All TLR agonists were dissolved in deionized water and applied to a culture media for TLR activation. The cells were treated with test compounds or a control medium for 1 hour, and then stimulated with a TLR agonist for 4 hours, or 24 hours in the case of poly(I:C), and the cytokine secretion was monitored.
RAW 264.7 or differentiated THP-1 cell lines were seeded onto a 96-well culture plate at a density of 2×10^4 cells/well. The cells were treated with test compounds for 1 hour followed by the stimulation with TLR agonists for 4 hours. The supernatant was transferred to pre-coated assay plates, and the secretion levels of mouse and human TNF-α were measured by respective ELISA kits (Invitrogen, Carlsbad, CA, USA). […] Absorbance was measured by a microplate reader spectrophotometer (Molecular Devices, Inc., San Jose, CA, USA), and data was interpolated from a standard curve using SoftMax Pro 5.3 software (Molecular Devices, Inc.). […]

Regarding `COc1ccc(CNc2ncc(-c3ccc4c(c3)OCO4)n2C)c(OC)c1` [TIC10-7, 5-(2H-1,3-benzodioxol-5-yl)-N-[(2,4-dimethoxyphenyl)methyl]-1-methyl-1H-imidazol-2-amine], the “effect on TLR4-mediated cytokine (TNF-α) production” value is “no effect”.

The record behind these values is patent US12565475B2, “Small molecule compound inhibiting signal transmission path of TLR7 and TLR9 and use thereof” (AJOU UNIVERSITY INDUSTRY-ACADEMIC COOPERATION FOUNDATION, priority 2019, dated 2026).
